According to the supplement of paper PMC10307832:

Columns and labels:
Assay in all cases: relative viability (nuclei count vs DMSO), 5 days (fraction); higher = more cells survive
NCI-H1355 = test system: NCI-H1355
How it was run: (§1)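 After 5 days of treatment, lung cancer cells in 1536-well plates were fixed and stained in a single step (final 0.05% Triton X-100, 1% formaldehyde, 1 ug/ml Hoechst) and their nuclei counted on 4× images. Treatment had been applied by pin tool the day after seeding as one drug alone or as a fixed anchor-drug dose with five library-drug doses (not always all listed) in √10 steps. Relative viability is the nuclei count of treated wells divided by that of vehicle wells, and values are medians of duplicate plates.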

NCI-H2126 = test system: NCI-H2126
How it was run: as §1

NCI-H1623 = test system: NCI-H1623
How it was run: as §1

LK-2 = test system: LK-2
How it was run: as §1

NCI-H1563 = test system: NCI-H1563
How it was run: as §1

Calu-6 = test system: Calu-6
How it was run: as §1

NCI-H1703 = test system: NCI-H1703
How it was run: as §1

EBC-1 = test system: EBC-1
How it was run: as §1

A549 = test system: A549
How it was run: as §1

IA-LM = test system: IA-LM
How it was run: as §1

NCI-H1299 = test system: NCI-H1299
How it was run: as §1

## C=C1C(=O)O[C@@H](CCCCCCCC)[C@@H]1C(=O)O [C-75] + Cc1nc(Nc2ncc(C(=O)Nc3c(C)cccc3Cl)s2)cc(N2CCN(CCO)CC2)n1 [Dasatinib] (partner 0.075 µM)
NCI-H1355; first compound 0.08 µM
  relative viability: 0.71
NCI-H1355; first compound 0.253 µM
  relative viability: 0.613
NCI-H1355; first compound 0.8 µM
  relative viability: 0.702
NCI-H1355; first compound 2.53 µM
  relative viability: 0.649
NCI-H1355; first compound 8 µM
  relative viability: 0.775
NCI-H2126; first compound 0.08 µM
  relative viability: 0.665
NCI-H2126; first compound 0.253 µM
  relative viability: 0.657
NCI-H2126; first compound 0.8 µM
  relative viability: 0.576
NCI-H2126; first compound 2.53 µM
  relative viability: 0.448
NCI-H2126; first compound 8 µM
  relative viability: 0.586
NCI-H1623; first compound 0.08 µM
  relative viability: 0.591
NCI-H1623; first compound 0.253 µM
  relative viability: 0.649
NCI-H1623; first compound 0.8 µM
  relative viability: 0.516
NCI-H1623; first compound 2.53 µM
  relative viability: 0.447
NCI-H1623; first compound 8 µM
  relative viability: 0.695
LK-2; first compound 0.08 µM
  relative viability: 0.388
LK-2; first compound 0.253 µM
  relative viability: 0.433
LK-2; first compound 0.8 µM
  relative viability: 0.309
LK-2; first compound 2.53 µM
  relative viability: 0.237
LK-2; first compound 8 µM
  relative viability: 0.291
NCI-H1563; first compound 0.08 µM
  relative viability: 0.387
NCI-H1563; first compound 0.253 µM
  relative viability: 0.453
NCI-H1563; first compound 0.8 µM
  relative viability: 0.444
NCI-H1563; first compound 2.53 µM
  relative viability: 0.415
NCI-H1563; first compound 8 µM
  relative viability: 0.569

## Oc1nc(-c2ccc(C(F)(F)F)cc2)nc2c1CSCC2 [XAV939] + CC1(C)CCC(c2ccc(Cl)cc2)=C(CN2CCN(c3ccc(C(=O)NS(=O)(=O)c4ccc(N[C@H](CCN5CCOCC5)CSc5ccccc5)c(S(=O)(=O)C(F)(F)F)c4)cc3)CC2)C1 [Navitoclax] (partner 0.5 µM)
Calu-6; first compound 0.08 µM
  relative viability: 0.909
Calu-6; first compound 0.253 µM
  relative viability: 0.779
Calu-6; first compound 0.8 µM
  relative viability: 0.867
Calu-6; first compound 2.53 µM
  relative viability: 0.857
NCI-H1355; first compound 0.08 µM
  relative viability: 0.913
NCI-H1355; first compound 0.253 µM
  relative viability: 0.825
NCI-H1355; first compound 0.8 µM
  relative viability: 0.805
NCI-H1355; first compound 2.53 µM
  relative viability: 0.637
NCI-H2126; first compound 0.08 µM
  relative viability: 0.773
NCI-H2126; first compound 0.253 µM
  relative viability: 0.653
NCI-H2126; first compound 0.8 µM
  relative viability: 0.813
NCI-H2126; first compound 2.53 µM
  relative viability: 0.739
NCI-H1703; first compound 0.08 µM
  relative viability: 1.33
NCI-H1703; first compound 0.253 µM
  relative viability: 1.35
NCI-H1703; first compound 0.8 µM
  relative viability: 0.89
NCI-H1703; first compound 2.53 µM
  relative viability: 0.844
LK-2; first compound 0.08 µM
  relative viability: 1.07
LK-2; first compound 0.253 µM
  relative viability: 0.757
LK-2; first compound 0.8 µM
  relative viability: 0.928
LK-2; first compound 2.53 µM
  relative viability: 0.631
EBC-1; first compound 0.08 µM
  relative viability: 0.489
EBC-1; first compound 0.253 µM
  relative viability: 0.413
EBC-1; first compound 0.8 µM
  relative viability: 0.404
EBC-1; first compound 2.53 µM
  relative viability: 0.447
A549; first compound 0.08 µM
  relative viability: 1.49
A549; first compound 0.253 µM
  relative viability: 1.06
A549; first compound 0.8 µM
  relative viability: 1.12
A549; first compound 2.53 µM
  relative viability: 1.06
IA-LM; first compound 0.08 µM
  relative viability: 0.89
IA-LM; first compound 0.253 µM
  relative viability: 0.698
IA-LM; first compound 0.8 µM
  relative viability: 0.781
IA-LM; first compound 2.53 µM
  relative viability: 0.463
NCI-H1299; first compound 0.08 µM
  relative viability: 1.07
NCI-H1299; first compound 0.253 µM
  relative viability: 1.02
NCI-H1299; first compound 0.8 µM
  relative viability: 1.1
NCI-H1299; first compound 2.53 µM
  relative viability: 1.04

## C=C1C(=O)O[C@@H](CCCCCCCC)[C@@H]1C(=O)O [C-75] + O=C(c1cc(Cc2n[nH]c(=O)c3ccccc23)ccc1F)N1CCN(C(=O)C2CC2)CC1 [Olaparib] (partner 8 µM)
Calu-6; first compound 0.08 µM
  relative viability: 0.558
Calu-6; first compound 0.253 µM
  relative viability: 0.576
Calu-6; first compound 0.8 µM
  relative viability: 0.522
Calu-6; first compound 2.53 µM
  relative viability: 0.489
Calu-6; first compound 8 µM
  relative viability: 0.469
NCI-H1355; first compound 0.08 µM
  relative viability: 0.709
NCI-H1355; first compound 0.253 µM
  relative viability: 0.767
NCI-H1355; first compound 0.8 µM
  relative viability: 0.76
NCI-H1355; first compound 2.53 µM
  relative viability: 0.647
NCI-H1355; first compound 8 µM
  relative viability: 0.753
NCI-H2126; first compound 0.08 µM
  relative viability: 0.881
NCI-H2126; first compound 0.253 µM
  relative viability: 0.927
NCI-H2126; first compound 0.8 µM
  relative viability: 0.858
NCI-H2126; first compound 2.53 µM
  relative viability: 0.878
NCI-H2126; first compound 8 µM
  relative viability: 0.894
NCI-H1703; first compound 0.08 µM
  relative viability: 0.416
NCI-H1703; first compound 0.253 µM
  relative viability: 0.391
NCI-H1703; first compound 0.8 µM
  relative viability: 0.348
NCI-H1703; first compound 2.53 µM
  relative viability: 0.441
NCI-H1703; first compound 8 µM
  relative viability: 0.432
LK-2; first compound 0.08 µM
  relative viability: 0.674
LK-2; first compound 0.253 µM
  relative viability: 0.84
LK-2; first compound 0.8 µM
  relative viability: 0.64
LK-2; first compound 2.53 µM
  relative viability: 0.596
LK-2; first compound 8 µM
  relative viability: 0.502
EBC-1; first compound 0.08 µM
  relative viability: 0.62
EBC-1; first compound 0.253 µM
  relative viability: 0.807
EBC-1; first compound 0.8 µM
  relative viability: 0.692
EBC-1; first compound 2.53 µM
  relative viability: 0.613
EBC-1; first compound 8 µM
  relative viability: 0.536
A549; first compound 0.08 µM
  relative viability: 0.394
A549; first compound 0.253 µM
  relative viability: 0.497
A549; first compound 0.8 µM
  relative viability: 0.216
A549; first compound 2.53 µM
  relative viability: 0.128
A549; first compound 8 µM
  relative viability: 0.251
IA-LM; first compound 0.08 µM
  relative viability: 0.803
IA-LM; first compound 0.253 µM
  relative viability: 0.885
IA-LM; first compound 0.8 µM
  relative viability: 0.788
IA-LM; first compound 2.53 µM
  relative viability: 0.761
IA-LM; first compound 8 µM
  relative viability: 0.767
NCI-H1299; first compound 0.08 µM
  relative viability: 0.946
NCI-H1299; first compound 0.253 µM
  relative viability: 0.976
NCI-H1299; first compound 0.8 µM
  relative viability: 0.974
NCI-H1299; first compound 2.53 µM
  relative viability: 0.93
NCI-H1299; first compound 8 µM
  relative viability: 0.924
